We go through one compound from ChEMBL document CHEMBL4265889, “Design and synthesis of tetrahydropyridopyrimidine based Toll-Like Receptor (TLR) 7/8 dual agonists” (Bioorg Med Chem Lett, 2018).

Data set [1] deals with Mus musculus. As to the kind of experiment: Induction of innate immune response in C57BL/6 mouse assessed as IFNalpha Cmax in liver at 5 mg/kg, po. In kind it is functional, organism-based. Details: dose 5 mg/kg.
Another data set is filed under the species Homo sapiens. The data set can be described thus: Binding affinity to histamine receptor (unknown origin).
The target of another data set is Cytochrome P450 3A4 (Homo sapiens, UniProt P08684). The data set can be described thus: Inhibition of CYP3A4 (unknown origin). In kind it is ADME.
Cytochrome P450 3A4, sequence (P08684 whole entry): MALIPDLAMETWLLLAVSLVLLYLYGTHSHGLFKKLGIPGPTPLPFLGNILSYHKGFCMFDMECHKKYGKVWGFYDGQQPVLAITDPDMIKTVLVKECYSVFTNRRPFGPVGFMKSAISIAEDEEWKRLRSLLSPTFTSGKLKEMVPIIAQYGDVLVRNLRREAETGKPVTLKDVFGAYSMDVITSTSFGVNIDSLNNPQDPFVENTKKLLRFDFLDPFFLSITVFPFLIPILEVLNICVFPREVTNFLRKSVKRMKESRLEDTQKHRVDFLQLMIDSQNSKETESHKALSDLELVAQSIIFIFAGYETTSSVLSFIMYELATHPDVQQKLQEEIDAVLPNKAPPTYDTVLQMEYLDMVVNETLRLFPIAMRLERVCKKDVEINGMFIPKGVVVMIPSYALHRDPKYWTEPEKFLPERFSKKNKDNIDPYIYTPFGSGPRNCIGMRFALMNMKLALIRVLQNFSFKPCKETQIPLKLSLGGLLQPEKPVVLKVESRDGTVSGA
Data set [2] concerns Mus musculus. The data set can be described thus: Induction of innate immune response in C57BL/6 mouse assessed as IP-10 Cmax in liver at 5 mg/kg, po. It counts as functional, organism-based. The arrangement: dose 5 mg/kg.
A short description of data set [3]: AUC (0 to last) in C57BL/6 mouse plasma at 5 mg/kg, po. In kind it is ADME, organism-based. The arrangement: dose 5 mg/kg, route oral, time 0 - last.
In the next data set the target is T1, Cytochrome P450 2C8 (Homo sapiens, UniProt P10632).
T1 sequence (P10632 whole entry): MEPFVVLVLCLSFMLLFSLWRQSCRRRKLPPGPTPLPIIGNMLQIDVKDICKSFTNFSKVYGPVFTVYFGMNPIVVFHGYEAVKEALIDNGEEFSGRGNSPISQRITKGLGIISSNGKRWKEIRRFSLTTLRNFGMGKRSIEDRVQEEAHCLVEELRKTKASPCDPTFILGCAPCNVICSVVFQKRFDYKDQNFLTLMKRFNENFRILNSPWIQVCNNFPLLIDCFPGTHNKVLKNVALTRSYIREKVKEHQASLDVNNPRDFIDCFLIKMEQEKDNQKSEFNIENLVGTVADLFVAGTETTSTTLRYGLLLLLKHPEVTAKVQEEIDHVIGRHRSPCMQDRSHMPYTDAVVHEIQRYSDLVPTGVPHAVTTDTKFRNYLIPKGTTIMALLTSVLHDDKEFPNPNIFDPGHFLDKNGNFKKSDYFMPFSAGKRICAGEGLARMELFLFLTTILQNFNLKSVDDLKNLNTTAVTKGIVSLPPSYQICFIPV
As to the kind of experiment: Inhibition of CYP2C8 (unknown origin). It counts as ADME.

Data set [4] deals with T2, Toll-like receptor 7 (Homo sapiens) (UniProt Q9NYK1).
T2 sequence (whole entry): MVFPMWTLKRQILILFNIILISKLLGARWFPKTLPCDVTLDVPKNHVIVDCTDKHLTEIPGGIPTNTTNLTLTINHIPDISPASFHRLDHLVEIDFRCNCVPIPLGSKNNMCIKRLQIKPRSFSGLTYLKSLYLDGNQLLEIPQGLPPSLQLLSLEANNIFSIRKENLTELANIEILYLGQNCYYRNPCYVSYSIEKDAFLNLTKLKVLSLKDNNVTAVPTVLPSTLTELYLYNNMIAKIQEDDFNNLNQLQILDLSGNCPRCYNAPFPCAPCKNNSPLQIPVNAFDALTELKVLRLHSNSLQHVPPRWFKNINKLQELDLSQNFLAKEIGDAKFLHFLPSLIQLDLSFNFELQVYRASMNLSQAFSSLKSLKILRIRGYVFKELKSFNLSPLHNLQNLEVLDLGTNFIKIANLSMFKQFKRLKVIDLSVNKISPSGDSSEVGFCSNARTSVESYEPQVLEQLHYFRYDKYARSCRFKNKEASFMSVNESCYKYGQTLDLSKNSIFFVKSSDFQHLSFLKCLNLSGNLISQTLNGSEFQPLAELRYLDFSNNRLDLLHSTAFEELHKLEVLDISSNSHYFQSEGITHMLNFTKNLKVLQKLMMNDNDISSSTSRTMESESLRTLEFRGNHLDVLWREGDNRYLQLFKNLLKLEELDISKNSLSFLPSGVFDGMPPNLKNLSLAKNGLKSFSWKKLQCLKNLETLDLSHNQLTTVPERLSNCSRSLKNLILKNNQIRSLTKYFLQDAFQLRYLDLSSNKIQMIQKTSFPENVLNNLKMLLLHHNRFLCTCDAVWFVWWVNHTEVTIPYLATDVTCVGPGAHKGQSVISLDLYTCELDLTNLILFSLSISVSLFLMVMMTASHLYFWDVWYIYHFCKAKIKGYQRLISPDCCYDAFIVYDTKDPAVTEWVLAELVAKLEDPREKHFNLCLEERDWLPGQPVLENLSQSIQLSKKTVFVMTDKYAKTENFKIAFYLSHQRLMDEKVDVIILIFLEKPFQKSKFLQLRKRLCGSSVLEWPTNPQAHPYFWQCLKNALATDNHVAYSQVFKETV
The data set can be described thus: Agonist activity at human TLR7 expressed in HEK293 cells after 6 hrs by NFkappaB-luciferase reporter gene assay. In kind it is cell-based.

The target of data set [5] is T2, Toll-like receptor 7 (Homo sapiens). The data set can be described thus: Agonist activity at TLR7 in human PBMC assessed as suppression of HCV replicon replication in human HuH7 luc/neo cells harboring RNA encoding bicistronic expression construct comprising wild type HCV type 1b NS3-NS5B regions exposed to conditioned media from compound treated PBMCs after 24 hrs by luciferase reporter gene assay. It counts as cell-based. In general terms: A replicon is a self-replicating genome or part of one, used to study replication in cells.

Broadly, the IC50 is the concentration needed to halve the response being measured. Read a low IC50 as inhibition by little substance. In general, AUC(0-t) refers to exposure summed from dosing to a finite time, without extrapolation to infinity. Read a low AUC(0-t) as less exposure.

With `CCC[C@@H](CCO)Nc1nc(N)nc2c1CN(C(=O)c1csc(C)n1)CC2`, the results for the Cmax with Mus musculus [1] and in the data set with Mus musculus [2] were 0 pg/g and 75 pg/g, respectively. Moreover, the Activity in the data set filed under Homo sapiens was more than 10 µM. Moreover, the IC50 against Cytochrome P450 3A4 and at Cytochrome P450 2C8 was more than 10 µM each time. In data set [3], this compound yielded an area under the curve AUC(0-t) of 70 ng·h/mL. Further, the MEC stood at 1.5 µM in data set [4] and 0.2 µM in data set [5].
